The conditions of data set [1]: described in PCT/GB94/02249; cited from earlier work.
For data set [2] the following is noted: Vanhoutte et al (1991); Denson et al (1992); cited from earlier work.
The nature of data set [3]: Tissue concentrations of bupivacaine enantiomers in sheep post-mortem after increasing bolus doses of racbupivacaine HCl until fatal outcome. It counts as in vivo. Here is the method: (§1) Four sheep weighing 39-49 kg (mean 44, SD 4 kg) were given increasing bolus doses (from 40 mg) of racbupivacaine HCl These were administered at least 1 day apart via a PVC cannula until a fatal outcome resulted. The heart and brain were removed within 20 min of death to be analysed for bupivacaine concentration. The heart was removed by transection through the great vessels approximately 20 mm above the level of the aortic valve, and 20 mm below the caudal border of the right atrium. Blood was immediately expressed from the cardiac chambers, and representative samples of the left and right atrium and ventricle were obtained, blotted and stored frozen (-20° C.) until assay. The brain was removed by transection at the level of the lower border of the pons, blotted and stored frozen as for the heart tissue.
The variability in the fatal doses (80-200 mg) was reflected in the tissue concentrations measured post-mortem. Larger differences in the concentrations of both bupivacaine enantiomers in the atrium and ventricle were apparent.

For data set [4] the following is noted: surgical wound infiltrated before closure, 0.25%; cited from earlier work.
The conditions of data set [5]: chronic epidural and opioid infusions, 0.1 to 0.5% bupivacaine, cancer pain; cited from earlier work.
For data set [6] the following is noted: some pain syndromes; cited from earlier work.
Data set [7] is described as follows: Fatal dose of racbupivacaine HCl in sheep (increasing bolus doses until a fatal outcome). It counts as in vivo. As for the experimental part: as §1
Setting [8] is: levobupivacaine vs dexbupivacaine.
Setting [9] is: sheep No. 1, fatal dose 80 mg racbupivacaine HCl.
The mark [10] stands for this setting: sheep No. 2, fatal dose 80 mg racbupivacaine HCl.
The mark [11] stands for this setting: sheep No. 3, fatal dose 200 mg racbupivacaine HCl.
Where [12] appears, read: sheep No. 4, fatal dose 200 mg racbupivacaine HCl.

Structures can show the parent of a compound that is named as a salt.

Take `CCCCN1CCCC[C@H]1C(=O)Nc1c(C)cccc1C` [levobupivacaine]: in data set [1], the “Cardiodepressant effect relative to racemic bupivacaine” value is recorded as “reduced cardiodepressant effect”. The “Cardiotoxicity relative to dexbupivacaine and racemic bupivacaine” value in data set [2] is “probably less cardiotoxic than dexbupivacaine and racemic bupivacaine”. Besides, in data set [3] (setting [8]), the “Accumulation in the heart and brain” value was “does not accumulate in the heart and brain as much as the other component (dexbupivacaine)”; the “Tissue uptake into ventricle and brain vs dexbupivacaine” value was “less tissue uptake of levobupivacaine into ventricle and brain than dexbupivacaine”. The Clearance entry in data set [3] (levobupivacaine vs dexbupivacaine, inferred from tissue uptake) is listed as “improved clearance”. In addition, in data set [3] (setting [9]), the “Tissue concentration, Atrium” value turned out to be 6.22 µg/g; the “Tissue concentration, Brain” value is 6.53 µg/g; the “Tissue concentration, Ventricle” value stood at 8.44 µg/g. In data set [3] (setting [10]), the “Tissue concentration, Atrium” value was determined as 3.65 µg/g; the “Tissue concentration, Brain” value was determined as 4.59 µg/g; the “Tissue concentration, Ventricle” value worked out at 7.36 µg/g. For the same molecule, in data set [3] (setting [11]), the “Tissue concentration, Atrium” value was 18.0 µg/g; the “Tissue concentration, Brain” value stood at 11.7 µg/g; the “Tissue concentration, Ventricle” value stood at 44.1 µg/g. In addition, in data set [3] (setting [12]), the “Tissue concentration, Atrium” value was 21.2 µg/g; the “Tissue concentration, Brain” value was 16.3 µg/g; the “Tissue concentration, Ventricle” value worked out at 33.3 µg/g.
For `CCCCN1CCCCC1C(=O)Nc1c(C)cccc1C` (racemic) [racemic bupivacaine, 1-butyl-N-(2,6-dimethylphenyl)-2-piperidinecarboxamide], in data set [4], the “Control of post-operative pain” value is listed as “effective in the control of post-operative pain” and the “Opioid requirements of patients recovering from herniorrhaphy” value was “reduce the opioid requirements”. In addition, in data set [5], the Bupivacaine clearance entry is listed as “progressive reduction in bupivacaine clearance”. For the same molecule, in data set [3] (setting [9]), the “R:S ratio of tissue concentration, Atrium” value (“R:S ratio … Atrium” for short) stood at 0.92; the “R:S ratio of tissue concentration, Brain” value is 1.06; the “R:S ratio of tissue concentration, Ventricle” value (“R:S ratio … Ventricle” for short) is recorded as 1.18. In data set [3] (setting [10]), the “R:S ratio … Atrium” value was 1.08; the “R:S ratio of tissue concentration, Brain” value was 1.08; the “R:S ratio … Ventricle” value is listed as 1.05. In data set [3] (setting [11]), the “R:S ratio … Atrium” value is given as 0.99; the “R:S ratio of tissue concentration, Brain” value amounted to 1.09; the “R:S ratio … Ventricle” value came out at 1.03. In data set [3] (setting [12]), the “R:S ratio … Atrium” value worked out at 1.02; the “R:S ratio of tissue concentration, Brain” value is reported as 1.08; the “R:S ratio … Ventricle” value is 1.03. In addition, the “Analgesic usefulness in chronic administration” value in data set [6] is listed as “useful in chronic administration as an analgesic in some pain syndromes”.
Consider `CCCCN1CCCC[C@@H]1C(=O)Nc1c(C)cccc1C` [dexbupivacaine], for which the “Uptake of enantiomers by ventricle and brain” value in data set [3] (both P=0.03 by the Students paired t test, four sheep) was “more (+)-(R)- than (-)-(S)-bupivacaine being taken up by these tissues”. For the same molecule, the “Uptake of enantiomers by atrium” value in data set [3] (four sheep, difference R vs S) is given as “This was not so for the atrium”. For the same molecule, the “Tissue concentration, Atrium” value was 5.70 µg/g in data set [3] (setting [9]), 3.94 µg/g in data set [3] (setting [10]), 17.9 µg/g in data set [3] (setting [11]) and 21.5 µg/g in data set [3] (setting [12]). For the same molecule, the “Tissue concentration, Brain” value in data set [3] (setting [9]) was found to be 6.91 µg/g; in data set [3] (setting [10]), 4.97 µg/g; in data set [3] (setting [11]), 12.7 µg/g; in data set [3] (setting [12]), 17.2 µg/g. Also, the “Tissue concentration, Ventricle” value turned out to be 9.93 µg/g in data set [3] (setting [9]), 7.70 µg/g in data set [3] (setting [10]), 45.6 µg/g in data set [3] (setting [11]) and 34.1 µg/g in data set [3] (setting [12]).
Consider `CCCCN1CCCCC1C(=O)Nc1c(C)cccc1C` (racemic) [racbupivacaine HCl], for which the “Fatal doses (variability)” value in data set [7] (four sheep, increasing bolus doses) was in the range of 80 to 200 mg. In addition, the Fatal dose in data set [7] (sheep No. 1, increasing bolus doses) was found to be 80 mg; in data set [7] (sheep No. 2, increasing bolus doses), 80 mg; in data set [7] (sheep No. 3, increasing bolus doses), 200 mg; in data set [7] (sheep No. 4, increasing bolus doses) it was 200 mg.

These data come from patent publication US5955479A, “Levobupivacaine for managing chronic pain” (Darwin Discovery Ltd., priority 1993, dated 1999).
